US7192949B2, “Substituted bicyclic pyrimidinones as a mitotic kinesin KSP inhibitors” (Merck & Co., Inc., priority 2001, dated 2007)

Target: T1, human KSP motor domain (KSP(367H)) (Homo sapiens, UniProt P52732)
T1 construct: were used to amplify the motor domain and the neck linker region; made in house; host or cells: E. coli BL21 (DE3), pRSETa vector
T1 sequence (P52732 18-359 limits assumed): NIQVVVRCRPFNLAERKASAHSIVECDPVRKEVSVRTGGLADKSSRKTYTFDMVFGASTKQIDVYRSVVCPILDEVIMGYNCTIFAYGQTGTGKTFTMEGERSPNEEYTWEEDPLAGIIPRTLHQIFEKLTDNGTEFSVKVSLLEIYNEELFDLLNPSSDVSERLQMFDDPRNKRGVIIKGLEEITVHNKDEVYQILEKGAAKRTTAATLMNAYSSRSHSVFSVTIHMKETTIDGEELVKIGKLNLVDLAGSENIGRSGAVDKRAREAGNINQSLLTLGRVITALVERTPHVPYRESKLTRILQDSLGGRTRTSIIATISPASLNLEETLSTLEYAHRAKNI
Experiment: Kinesin ATPase In Vitro Assay
Type: biochemical
Conditions: kinesin motor domain with microtubules, 1 mM ATP, 23° C.; free phosphate by quinaldine red/ammonium molybdate, absorbance 540 nm
From the text: I. Kinesin ATPase In Vitro Assay
Cloning and Expression of Human Poly-Histidine Tagged KSP Motor Domain (KSP(367H))
Plasmids for the expression of the human KSP motor domain construct were cloned by PCR using a pBluescript full length human KSP construct (Blangy et al., Cell, vol.83, pp 1159–1169, 1995) as a template. The N-terminal primer 5′-[…] (SEQ.ID.NO.: 1) and the C-terminal primer 5′-[…] […] (SEQ.ID.NO.: 2) were used to amplify the motor domain and the neck linker region. The PCR products were digested with AseI and XhoI, ligated into the NdeI/XhoI digestion product of pRSETa (Invitrogen) and transformed into E. coli BL21 (DE3).
Cells were grown at 37° C. to an OD600 of 0.5. […]
The kinesin motor domain is incubated with microtubules, 1 mM ATP (1:1 MgCl2: Na-ATP), and compound at 23° C. in buffer containing 80 mM K-HEPES (pH 7.0), 1 mM EGTA, 1 mM DTT, 1 mM MgCl2, and 50 mM KCl. […] Free phosphate from the ATP hydrolysis reaction is measured via a quinaldine red/ammonium molybdate assay by adding 150 μl of quench C buffer containing a 2:1 ratio of quench A:quench B. Quench A contains 0.1 mg/ml quinaldine red and 0.14% polyvinyl alcohol; quench B contains 12.3 mM ammonium molybdate tetrahydrate in 1.15 M sulfuric acid. The reaction is incubated for 10 minutes at 23° C., and the absorbance of the phospho-molybdate complex is measured at 540 nm.

IC50: ≤ 50 µM
SMILES: CCC(c1nc2c(c(=O)n1Cc1ccccc1)CCC2)N(CCN(C)C)C(=O)c1ccc(Br)cc1 (stereo not shown) [1-5, N-[1-(3-benzyl-4-oxo-4,5,6,7-tetrahydro-3H-cyclopenta[d]pyriinidin-2-yl)propyl]-4-bromo-N-[2-(dimethylamino)ethyl]benzamide]
